Patent US9951057B2, “COMT inhibiting methods and compositions” (Lieber Institute for Brain Development, priority 2015, dated 2018)

Test system: not given
Test: not given
Conditions: Nutt and Fellman 1984; cited from earlier work

**Q.** Which “percentage of exogenously administered L-DOPA that reaches the brain” value does the source give for N[C@@H](Cc1ccc(O)c(O)c1)C(=O)O [L-DOPA, L-dihydroxyphenylalanine] here?
**A.** ~1%

Test system: not given
Test: not given
Conditions: clinical use; Olanow and Watkins 2007; cited from earlier work

**Q.** Which liver injury does the source give for Cc1ccc(C(=O)c2cc(O)c(O)c([N+](=O)[O-])c2)cc1 [tolcapone] here?
**A.** associated with serious liver injury, including three deaths

Target: T1, aromatic amino acid decarboxylase (AAAD) (Homo sapiens, UniProt P20711)
T1 sequence (P20711 1-480): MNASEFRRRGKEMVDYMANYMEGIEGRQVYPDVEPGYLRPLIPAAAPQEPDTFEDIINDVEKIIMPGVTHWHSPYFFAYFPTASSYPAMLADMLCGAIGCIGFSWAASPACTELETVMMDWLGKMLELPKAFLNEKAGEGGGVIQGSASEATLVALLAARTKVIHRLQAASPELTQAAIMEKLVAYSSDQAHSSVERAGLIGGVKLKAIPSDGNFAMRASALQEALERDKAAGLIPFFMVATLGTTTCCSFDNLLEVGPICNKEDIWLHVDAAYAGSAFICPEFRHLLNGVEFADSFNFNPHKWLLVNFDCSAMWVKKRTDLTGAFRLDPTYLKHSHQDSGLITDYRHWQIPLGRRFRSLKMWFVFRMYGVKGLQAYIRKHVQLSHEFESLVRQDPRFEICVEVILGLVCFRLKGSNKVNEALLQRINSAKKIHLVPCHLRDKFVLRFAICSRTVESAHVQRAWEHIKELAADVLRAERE
Test: not given
Conditions: given with L-DOPA; Nutt, Woodward et al. 1985; cited from earlier work

**Q.** With C[C@@](Cc1ccc(O)c(O)c1)(NN)C(=O)O [Carbidopa] as the compound, how does the “reduction of the efficacious L-DOPA dose” value read?
**A.** 60-80%

Target: T2, catechol-O-methyltransferase (COMT) (Homo sapiens, UniProt P21964)
T2 construct: M51A variant) was expressed in HEK 293F cells
T2 sequence (P21964 52-271 limits assumed): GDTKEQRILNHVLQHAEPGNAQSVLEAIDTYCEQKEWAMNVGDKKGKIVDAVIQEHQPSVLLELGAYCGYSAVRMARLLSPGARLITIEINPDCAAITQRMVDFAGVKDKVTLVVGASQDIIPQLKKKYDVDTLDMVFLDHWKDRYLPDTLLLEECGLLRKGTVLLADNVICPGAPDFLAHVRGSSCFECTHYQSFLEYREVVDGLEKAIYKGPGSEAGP
Test: COMT inhibition assay (HTRF, production of SAH from SAM)
Type: biochemical
Conditions: recombinant human COMT, table does not say whether MB-COMT or S-COMT
Description: The ability of compounds to inhibit the activity of catechol-O-methyltransferase (COMT) was determined by a homogenous time-resolved fluorescent (HTRF) assay (Lina et al, 2012; kit from CisBio, Codolet, France). This assay measures the production of S-adenosyl homocysteine (SAH) from the methyl donor S-adenosyl methionine. Recombinant human membrane bound COMT (MB-COMT; M51A variant) was expressed in HEK 293F cells using 293Fectin (Life Technologies, Gent, Belgium) and membranes prepared. The membranes were re-suspended in buffer (20 mM Tris/HCl pH 7; 10 mM glycerol; 2 mM MgCl2; 10 mM NaCl), aliquoted and stored at −80° C. Recombinant human soluble COMT (S-COMT), Val158 variant and a hexa-His tag on the N-terminus, was purified using Ni-NTA chromatography, the His tag removed and stored in buffer as above.
For the human MB-COMT assay, membranes (62 ng/well) were incubated with SAM (20 μM final, CisBio) and dopamine (1.5 μM final; Sigma H8502, Diegem, Belgium) in the presence or absence of varying concentrations (typically 10 concentrations ranging from 10 μM to 0.1 nM) of compound for 40 min at 37° C. in 384-well microtitre plates (10 μl per well final volume). The reaction was terminated by the addition of acylation buffer and the amount of SAH produced determined according to manufacturer's instructions. Specific inhibition as that inhibited by a high concentration of tolcapone (10 μM; synthesised at UCB) and all experiments were validated using a control curve to tolcapone.
The human S-COMT assay was performed as above except that 0.15 ng enzyme/well was incubated with SAM (20 μM final) and dopamine (100 μM final) for 15 min at 37° C. and SAH production determined.
HTRF readings were performed using a Perkin Elmer Envision and results expressed as concentration of SAH produced using a standard curve. Results were analysed using non-linear regression to the 4-parameter logistic equation and pIC50 (−log 10 concentration of drug which inhibits enzyme activity/SAH production by 50%) determined.

**Q.** With CC(C)CS(=O)(=O)c1ccc(O)c2ncccc12 [Example 1, 5-isobutylsulfonylquinolin-8-ol] as the compound, how does the “Activity range (pIC50)” value read?
**A.** +++ (three plus signs (+++) is associated with a pIC50 of above about 7)

**Q.** For CCCCCCCCS(=O)(=O)c1ccc(O)c2ncccc12 [Example 2, 5-octylsulfonylquinolin-8-ol], which “Activity range (pIC50)” value is on record?
**A.** +++ (three plus signs (+++) is associated with a pIC50 of above about 7)

**Q.** For O=S(=O)(c1ccc(O)c2ncccc12)C1CCOCC1 [Example 3, 5-tetrahydropyran-4-ylsulfonyquinolin-8-ol], which “Activity range (pIC50)” value is on record?
**A.** ++ (two plus signs (++) is associated with a pIC50 of from about great than 6 to 7)

**Q.** With C[C@@H]1CCCN1S(=O)(=O)c1ccc(O)c2ncccc12 [Example 5, 5-[(2R)-2-methylpyrrolidin-1-yl]sulfonylquinolin-8-ol] as the compound, how does the “Activity range (pIC50)” value read?
**A.** +++ (three plus signs (+++) is associated with a pIC50 of above about 7)

**Q.** Which “Activity range (pIC50)” value does the source give for C[C@H]1CCCN1S(=O)(=O)c1ccc(O)c2ncccc12 [Example 6] here?
**A.** +++ (three plus signs (+++) is associated with a pIC50 of above about 7)

**Q.** For O=S(=O)(c1cc(Cl)c(O)c2ncccc12)N1CCCC1 [Example 7, 7-chloro-5-pyrrolidin-1-ylsulfonyl-quinolin-8-ol], which “Activity range (pIC50)” value is on record?
**A.** ++ (two plus signs (++) is associated with a pIC50 of from about great than 6 to 7)

**Q.** For O=S(=O)(c1cc(Cl)c(O)c2ncccc12)C1CCCC1 [Example 8, 7-chloro-5-cyclopentylsulfonyl-quinolin-8-ol], which “Activity range (pIC50)” value is on record?
**A.** ++ (two plus signs (++) is associated with a pIC50 of from about great than 6 to 7)

**Q.** Which “Activity range (pIC50)” value does the source give for O=S(=O)(c1ccc(F)cc1)c1cc(Cl)c(O)c2ncccc12 [Example 9, 7-chloro-5-(4-fluorophenyl)sulfonyl-quinolin-8-ol] here?
**A.** ++ (two plus signs (++) is associated with a pIC50 of from about great than 6 to 7)

**Q.** Which “Activity range (pIC50)” value does the source give for O=S(=O)(c1cc(F)c(O)c2ncccc12)C1CCCC1 [Example 10, 7-fluoro-5-cyclopentylsulfonyl-quinolin-8-ol] here?
**A.** +++ (three plus signs (+++) is associated with a pIC50 of above about 7)

**Q.** For CC(C)CS(=O)(=O)c1cc(Cl)c(O)c2ncccc12 [Example 11, 7-chloro-5-isobutylsulfonyl-quinolin-8-ol], which “Activity range (pIC50)” value is on record?
**A.** + (a single plus (+) is associated with a pIC50 of from about 4.5 to 6)

**Q.** Which “Activity range (pIC50)” value does the source give for CC(C)S(=O)(=O)c1cc(Cl)c(O)c2ncccc12 [Example 12, 7-chloro-5-isopropylsulfonyl-quinolin-8-ol] here?
**A.** ++ (two plus signs (++) is associated with a pIC50 of from about great than 6 to 7)

**Q.** With O=S(=O)(c1cc(Cl)c(O)c2ncccc12)C1CCCCC1 [Example 13, 7-chloro-5-cyclohexylsulfonyl-quinolin-8-ol] as the compound, how does the “Activity range (pIC50)” value read?
**A.** +++ (three plus signs (+++) is associated with a pIC50 of above about 7)

**Q.** Which “Activity range (pIC50)” value does the source give for O=S(=O)(c1ccc(F)cc1)c1cc(F)c(O)c2ncccc12 [Example 14, 7-fluoro-5-(4-fluorophenyl)sulfonyl-quinolin-8-ol] here?
**A.** ++ (two plus signs (++) is associated with a pIC50 of from about great than 6 to 7)

**Q.** Which “Activity range (pIC50)” value does the source give for O=S(=O)(c1ccc(C(F)(F)F)cc1)c1cc(F)c(O)c2ncccc12 [Example 15, 7-fluoro-5-[4-(trifluoromethyl)phenyl]sulfonyl-quinolin-8-ol] here?
**A.** ++ (two plus signs (++) is associated with a pIC50 of from about great than 6 to 7)

**Q.** For O=S(=O)(c1ccccn1)c1cc(F)c(O)c2ncccc12 [Example 16, 7-fluoro-5-(2-pyridylsulfonyl)quinolin-8-ol], which “Activity range (pIC50)” value is on record?
**A.** ++ (two plus signs (++) is associated with a pIC50 of from about great than 6 to 7)

**Q.** With Cc1ccc(S(=O)(=O)c2cc(Cl)c(O)c3ncccc23)cc1C [Example 17, 7-chloro-5-(3,4-dimethylphenyl)sulfonyl-quinolin-8-ol] as the compound, how does the “Activity range (pIC50)” value read?
**A.** ++ (two plus signs (++) is associated with a pIC50 of from about great than 6 to 7)

**Q.** With O=S(=O)(c1ccc(C(F)(F)F)cc1)c1cc(Cl)c(O)c2ncccc12 [Example 18, 7-chloro-5-[4-(trifluoromethyl)phenyl]sulfonyl-quinolin-8-ol] as the compound, how does the “Activity range (pIC50)” value read?
**A.** ++ (two plus signs (++) is associated with a pIC50 of from about great than 6 to 7)

**Q.** For O=S(=O)(c1ccccn1)c1cc(Cl)c(O)c2ncccc12 [Example 19, 7-chloro-5-(2-pyridylsulfonyl)quinolin-8-ol], which “Activity range (pIC50)” value is on record?
**A.** ++ (two plus signs (++) is associated with a pIC50 of from about great than 6 to 7)

**Q.** With Cc1ccc(S(=O)(=O)c2cc(Cl)c(O)c3ncccc23)c(C)c1 [Example 20, 7-chloro-5-(2,4-dimethylphenyl)sulfonyl-quinolin-8-ol] as the compound, how does the “Activity range (pIC50)” value read?
**A.** +++ (three plus signs (+++) is associated with a pIC50 of above about 7)

**Q.** With O=S(=O)(c1cc(Cl)cc(Cl)c1)c1cc(Cl)c(O)c2ncccc12 [Example 21, 7-chloro-5-(3,5-dichlorophenyl)sulfonyl-quinolin-8-ol] as the compound, how does the “Activity range (pIC50)” value read?
**A.** + (a single plus (+) is associated with a pIC50 of from about 4.5 to 6)

**Q.** For O=S(=O)(c1nccs1)c1cc(Cl)c(O)c2ncccc12 [Example 22, 7-chloro-5-thiazol-2-ylsulfonyl-quinolin-8-ol], which “Activity range (pIC50)” value is on record?
**A.** ++ (two plus signs (++) is associated with a pIC50 of from about great than 6 to 7)

**Q.** With Cc1cccc(S(=O)(=O)c2cc(Cl)c(O)c3ncccc23)c1 [Example 23, 7-chloro-5-(m-tolylsulfonyl)quinolin-8-ol] as the compound, how does the “Activity range (pIC50)” value read?
**A.** ++ (two plus signs (++) is associated with a pIC50 of from about great than 6 to 7)

**Q.** Which “Activity range (pIC50)” value does the source give for O=S(=O)(c1ccc(Cl)c(Cl)c1)c1cc(Cl)c(O)c2ncccc12 [Example 24, 7-chloro-5-(3,4-dichlorophenyl)sulfonyl-quinolin-8-ol] here?
**A.** ++ (two plus signs (++) is associated with a pIC50 of from about great than 6 to 7)

**Q.** Which “Activity range (pIC50)” value does the source give for O=S(=O)(c1cccc(-c2ccccc2)c1)c1cc(Cl)c(O)c2ncccc12 [Example 25, 7-chloro-5-(3-phenylphenyl)sulfonyl-quinolin-8-ol] here?
**A.** ++ (two plus signs (++) is associated with a pIC50 of from about great than 6 to 7)

**Q.** With CC(C)(C)c1ccc(S(=O)(=O)c2cc(Cl)c(O)c3ncccc23)cc1 [Example 26, 5-(4-tert-butylphenyl)sulfonyl-7-chloro-quinolin-8-ol] as the compound, how does the “Activity range (pIC50)” value read?
**A.** + (a single plus (+) is associated with a pIC50 of from about 4.5 to 6)

**Q.** With O=S(=O)(c1cccnc1)c1cc(Cl)c(O)c2ncccc12 [Example 27, 7-chloro-5-(3-pyridylsulfonyl)quinolin-8-ol] as the compound, how does the “Activity range (pIC50)” value read?
**A.** + (a single plus (+) is associated with a pIC50 of from about 4.5 to 6)

**Q.** Which “Activity range (pIC50)” value does the source give for O=S(=O)(c1ccc[n+]([O-])c1)c1cc(Cl)c(O)c2ncccc12 [Example 28, 7-chloro-5-(1-oxidopyridin-1-ium-3-yl)sulfonyl-quinolin-8-ol] here?
**A.** + (a single plus (+) is associated with a pIC50 of from about 4.5 to 6)

Test system: not given
Test: not given
Conditions: Russ, et al. 1999; cited from earlier work

**Q.** For CCN(CC)C(=O)/C(C#N)=C/c1cc(O)c(O)c([N+](=O)[O-])c1 [entacapone], which “brain penetration / levels in the brain” value is on record?
**A.** negligible brain penetration

**Q.** Which “brain penetration / levels in the brain” value does the source give for Cc1ccc(C(=O)c2cc(O)c(O)c([N+](=O)[O-])c2)cc1 [tolcapone] here?
**A.** low but measurable levels in the brain
